According to US6914045B2, “Glycopeptide antibiotics” (Wyeth Holdings Corporation, priority 2001, dated 2005):
≈ marks a conversion by molar mass, not a printed value.

Columns and labels:
Experiment in all cases: in vitro antibacterial evaluation, MIC by broth dilution
Assay type in all cases: cell-based
Enterococcus sp. = conditions: broth dilution, 18 hours at 35° C.
Procedure, shortened: (§1)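 MIC, the lowest antibiotic concentration preventing growth, was read across 64-0.06 μg/mL with 5×10^5 CFU/mL inoculum. Method followed NCCLS M7-A2 broth dilution using Mueller-Hinton II; Gram-positive strains covered recent methicillin-, penicillin- and/or vancomycin-resistant clinical isolates.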

Staphylococcus sp. = conditions: broth dilution, 18 hours at 35° C.; for MIC Staphylococcus aureus (GC 1131): strain GC 1131
Procedure, shortened: as §1

Streptococcus sp. = conditions: broth dilution, 18 hours at 35° C.
Procedure, shortened: as §1

Escherichia coli = conditions: 18 hours at 35° C.

MIC Enterococcus avium (GC 4558) (Enterococcus sp.): 8 µg/mL (≈ 5.82 µM) | MIC Enterococcus faecalis (ATCC 29212) (Enterococcus sp.): 8 µg/mL (≈ 5.82 µM) | MIC Enterococcus faecalis (GC 2242) (Enterococcus sp.): 4 µg/mL (≈ 2.91 µM) | MIC Enterococcus faecalis (GC 2691) (Enterococcus sp.): 8 µg/mL (≈ 5.82 µM) | MIC Enterococcus faecalis (GC 3059) (Enterococcus sp.): 8 µg/mL (≈ 5.82 µM) | MIC Enterococcus faecalis (GC 4552) (Enterococcus sp.): 8 µg/mL (≈ 5.82 µM) | MIC Enterococcus faecalis (GC 4553) (Enterococcus sp.): 8 µg/mL (≈ 5.82 µM) | MIC Enterococcus faecalis (GC 4554) (Enterococcus sp.): 8 µg/mL (≈ 5.82 µM) | MIC Enterococcus faecalis (GC 6189) (Enterococcus sp.): 8 µg/mL (≈ 5.82 µM) | MIC Enterococcus faecium (GC 2243) (Enterococcus sp.): 8 µg/mL (≈ 5.82 µM) | MIC Enterococcus faecium (GC 4556) (Enterococcus sp.): 4 µg/mL (≈ 2.91 µM) | MIC Enterococcus faecium (GC 4557) (Enterococcus sp.): 4 µg/mL (≈ 2.91 µM) | MIC Enterococcus faecalis (ATCC 29212) (Enterococcus sp.; inoculum 5×10^5 CFU/mL, strain ATCC 29212): 8 µg/mL (≈ 5.82 µM) | MIC Enterococcus faecalis (GC 2242) (Enterococcus sp.; inoculum 5×10^5 CFU/mL, strain GC 2242): 4 µg/mL (≈ 2.91 µM) | MIC Enterococcus faecium (GC 2243) (Enterococcus sp.; inoculum 5×10^5 CFU/mL, strain GC 2243): 8 µg/mL (≈ 5.82 µM) | MIC Enterococcus faecalis (GC 2691) (Enterococcus sp.; inoculum 5×10^5 CFU/mL, strain GC 2691): 8 µg/mL (≈ 5.82 µM) | MIC Enterococcus faecalis (GC 3059) (Enterococcus sp.; inoculum 5×10^5 CFU/mL, strain GC 3059): 8 µg/mL (≈ 5.82 µM) | MIC Enterococcus faecalis (GC 4552) (Enterococcus sp.; inoculum 5×10^5 CFU/mL, strain GC 4552): 8 µg/mL (≈ 5.82 µM) | MIC Enterococcus faecalis (GC 4553) (Enterococcus sp.; inoculum 5×10^5 CFU/mL, strain GC 4553): 8 µg/mL (≈ 5.82 µM) | MIC Enterococcus faecalis (GC 4554) (Enterococcus sp.; inoculum 5×10^5 CFU/mL, strain GC 4554): 8 µg/mL (≈ 5.82 µM) | MIC Enterococcus faecium (GC 4556) (Enterococcus sp.; inoculum 5×10^5 CFU/mL, strain GC 4556): 4 µg/mL (≈ 2.91 µM) | MIC Enterococcus faecium (GC 4557) (Enterococcus sp.; inoculum 5×10^5 CFU/mL, strain GC 4557): 4 µg/mL (≈ 2.91 µM) | MIC Enterococcus avium (GC 4558) (Enterococcus sp.; inoculum 5×10^5 CFU/mL, strain GC 4558): 8 µg/mL (≈ 5.82 µM) | MIC Enterococcus faecalis (GC 6189) (Enterococcus sp.; inoculum 5×10^5 CFU/mL, strain GC 6189): 8 µg/mL (≈ 5.82 µM) | MIC Staphylococcus aureus (GC 1131) (Staphylococcus sp.; inoculum 5×10^5 CFU/mL): 2 µg/mL (≈ 1.45 µM) | MIC Staphylococcus aureus (ATCC 29213) (Staphylococcus sp.; strain ATCC 29213): 1 µg/mL (≈ 0.727 µM) | MIC Staphylococcus aureus (GC 1131) (Staphylococcus sp.): 2 µg/mL (≈ 1.45 µM) | MIC Staphylococcus aureus (GC 3051) (Staphylococcus sp.; strain GC 3051): 2 µg/mL (≈ 1.45 µM) | MIC Staphylococcus aureus (GC 3053) (Staphylococcus sp.; strain GC 3053): 4 µg/mL (≈ 2.91 µM) | MIC Staphylococcus aureus (GC 4541) (Staphylococcus sp.; strain GC 4541): 1 µg/mL (≈ 0.727 µM) | MIC Staphylococcus aureus (GC 4542) (Staphylococcus sp.; strain GC 4542): 1 µg/mL (≈ 0.727 µM) | MIC Staphylococcus aureus-SMITH (GC 4543) (Staphylococcus sp.; strain GC 4543): 2 µg/mL (≈ 1.45 µM) | MIC Staphylococcus aureus (GC 4544) (Staphylococcus sp.; strain GC 4544): 2 µg/mL (≈ 1.45 µM) | MIC Staphylococcus aureus (GC 4545) (Staphylococcus sp.; strain GC 4545): 1 µg/mL (≈ 0.727 µM) | MIC Coagulase Negative Staphylococcus (GC 4547) (Staphylococcus sp.; strain GC 4547): 2 µg/mL (≈ 1.45 µM) | MIC Coagulase Negative Staphylococcus (GC 4548) (Staphylococcus sp.; strain GC 4548): 1 µg/mL (≈ 0.727 µM) | MIC Coagulase Negative Staphylococcus (GC 4549) (Staphylococcus sp.; strain GC 4549): 1 µg/mL (≈ 0.727 µM) | MIC Coagulase Negative Staphylococcus (GC 4551) (Staphylococcus sp.; strain GC 4551): 2 µg/mL (≈ 1.45 µM) | MIC Coagulase Negative Staphylococcus (GC 6257) (Staphylococcus sp.; strain GC 6257): 1 µg/mL (≈ 0.727 µM) | MIC Streptococcus agalactiae (GC 4564) (Streptococcus sp.): 1 µg/mL (≈ 0.727 µM) | MIC Streptococcus pneumoniae (ATCC 6301) (Streptococcus sp.): 0.5 µg/mL (≈ 0.364 µM) | MIC Streptococcus pneumoniae (GC 1894) (Streptococcus sp.): 0.12 µg/mL (≈ 0.0872 µM) | MIC Streptococcus pneumoniae (GC 4565) (Streptococcus sp.): 0.25 µg/mL (≈ 0.182 µM) | MIC Streptococcus pyogenes (GC 4563) (Streptococcus sp.): 0.5 µg/mL (≈ 0.364 µM) | MIC Streptococcus pneumoniae (ATCC 6301) (Streptococcus sp.; inoculum 5×10^5 CFU/mL, strain ATCC 6301): 0.5 µg/mL (≈ 0.364 µM) | MIC Streptococcus pneumoniae (GC 1894) (Streptococcus sp.; inoculum 5×10^5 CFU/mL, strain GC 1894): 0.12 µg/mL (≈ 0.0872 µM) | MIC Streptococcus pyogenes (GC 4563) (Streptococcus sp.; inoculum 5×10^5 CFU/mL, strain GC 4563): 0.5 µg/mL (≈ 0.364 µM) | MIC Streptococcus agalactiae (GC 4564) (Streptococcus sp.; inoculum 5×10^5 CFU/mL, strain GC 4564): 1 µg/mL (≈ 0.727 µM) | MIC Streptococcus pneumoniae (GC 4565) (Streptococcus sp.; inoculum 5×10^5 CFU/mL, strain GC 4565): 0.25 µg/mL (≈ 0.182 µM) | MIC Escherichia coli (ATCC 25922) (Escherichia coli): 64 µg/mL (≈ 46.5 µM) | MIC Escherichia coli (GC 4559) (Escherichia coli): 32 µg/mL (≈ 23.3 µM) | MIC Escherichia coli (GC 4560) (Escherichia coli): 2 µg/mL (≈ 1.45 µM)
Compound: CC(c1ccccc1)C1NC(=O)CNC(=O)C(CO)NC(=O)C(C(O)C2CNC(=N)N2C2OC(CO)C(O)C(O)C2O)NC(=O)C(C(O)C2CNC(=N)N2)NC(=O)C(Cc2ccc(OC3OC(CO)C(OC4OC5COC6(CCCCC6)OC5C(O)C4O)C(O)C3O)cc2)NC1=O (centres unmarked) [Example 203]
MIC Staphylococcus haemolyticus (GC 4546) (Staphylococcus sp.; strain GC 4546): 1 µg/mL (≈ 0.727 µM)
